From paper PMC11821258 (Molecules, 2025)

Experiments:
[1] = system: caspase-3/7 in MV4-11 cells; assay: Caspase-3/7 activity determination; type: cell-based, human; settings: MV4-11, positive control
Method: The MV4-11 cells were seeded on 48-well plates to the final volume of 1 mL. […] After incubation, the cells were collected and centrifuged (5 min, 4 °C, 250× g). Cells were suspended in 50 µL of ice-cold lysis buffer (50 mM HEPES; 10% (w/v) sucrose; 150 mM NaCl; 2 mM EDTA; 1% (v/v) Triton X-100, pH 7.3; and HIIET, Wrocław, Poland) and incubated for 30 min at 4 °C. After the incubation, 40 µL of each sample was transferred to a white 96-well plate (Corning, USA) containing 160 µL of the reaction buffer (20 mM HEPES; 10% sucrose; 100 mM NaCl; 1 mM EDTA; 10 mM DTT; and 0.02% Trition X-100, pH 7.3) (HIIET, Wrocław, Poland) with a 9 µM AC-DEVD-AMC (Cayman Chemical, Ann Arbor, MI, USA) fluorogenic substrate (λex = 360 nm, λem = 460 nm). The correlation of the fluorescence increase with the caspase-3/7 level was continuously recorded at 37 °C for 120 min using Biotek Synergy H4 (Biokom, Warsaw, Poland). Compounds were tested in duplicates in single experiments, and each experiment was repeated at least three times independently. Results were normalized to the number of cells in each well and are reported as the mean relative caspase-3/7 activity compared to the untreated control sample ± SD.

[2] = system: MV4-11 cells; assay: Apoptosis determination via Annexin V and PI staining; type: cell-based, human; settings: MV4-11, 24 h
Method: Camptothecin at a concentration of 0.05 uM was used as a positive control. After incubation, the cells were collected and counted with a hemocytometer, and 1×10^5 cells were washed twice with PBS. APC-Annexin V (Becton Dickinson, Pharmingen, Franklin Lakes, NJ, USA) was dissolved to the concentration of […] in a binding buffer (10 mM HEPES/NaOH, pH 7.4; 150 mM NaCl; 5 mM KCl; 1 mM MgCl2; and 1.8 mM CaCl2) (HIIET, Wrocław, Poland), and the cells were suspended in 200 µL of this solution. After 15 min of the incubation in the dark at room temperature, 20 µL of propidium iodide (PI) solution (0.02 mg/mL) was added. Data acquisition was performed by conducting flow cytometry using a BD LSRFortessa cytometer (BD Bioscience, San Jose, CA, USA). The compounds were tested at least three times independently. Results were analyzed using Flowing software 2.5.1 (Turku, Finland). […] Double-negative cells were live cells, PI+/Annexin V+ were late apoptotic cells, PI-/Annexin V+ were early apoptotic cells, and PI+/Annexin V- were necrotic cells.

[3] = system: human colon cancer HCT116 cells; settings: HCT116, literature data ref 36; cited from earlier work
[4] = system: human biphenotypic B myelomonocytic leukemia MV4-11; settings: MV4-11, literature data ref 36; cited from earlier work
[5] = system: human lung carcinoma A549; settings: A549, literature data ref 36; cited from earlier work
[6] = system: human prostate adenocarcinoma PC-3; settings: PC-3, literature data ref 36; cited from earlier work
[7] = system: human breast cancer MCF-7; settings: MCF-7, literature data ref 36; cited from earlier work
[8] = system: human normal epithelial cells from the mammary gland (MCF-10A); settings: literature data ref 36; cited from earlier work

| SMILES | activity of caspase-3 in comparison to control cells [1] | induction of apoptosis [2] | IC50 [3] | IC50 [4] | IC50 [5] | IC50 [6] | IC50 [7] | IC50 [8] |
| --- | --- | --- | --- | --- | --- | --- | --- | --- |
| CC[C@@]1(O)C(=O)OCc2c1cc1n(c2=O)Cc2cc3ccccc3nc2-1 [camptothecin, reference compound] | 5 fold | induced apoptosis | – | – | – | – | – | – |
| COc1cccc2c1C(=O)c1c(O)c3c(c(O)c1C2=O)C[C@@](O)(C(=O)CO)C[C@@H]3O[C@H]1C[C@H](N)[C@H](O)[C@H](C)O1 [C, doxorubicin] | – | – | 118 ± 20 nM | 21 ± 8 nM | 40 ± 12 nM | 1270 ± 200 nM | 150 ± 15 nM | 114 ± 13 nM |
